This is an account of results in patent US11744844B2, “Selective estrogen receptor degraders” (Eli Lilly and Company, priority 2021, dated 2023).

Structures can show the parent of a compound that is named as a salt.

Holding throughout (format): cell-based
The target in assay [1] is T1, Y537N mutant ERα receptor (Homo sapiens, UniProt P03372, Y537N).
T1 construct: generated by CRISPR/Cas9 gene editing of ESR1 gene in MCF7 cells, clone #682; endogenous in cells; host or cells: MCF7-ESR1 Y537N-682 (CRISPR/Cas9-edited MCF7, clone #682)
T1 sequence (P03372 1-595 Y537N): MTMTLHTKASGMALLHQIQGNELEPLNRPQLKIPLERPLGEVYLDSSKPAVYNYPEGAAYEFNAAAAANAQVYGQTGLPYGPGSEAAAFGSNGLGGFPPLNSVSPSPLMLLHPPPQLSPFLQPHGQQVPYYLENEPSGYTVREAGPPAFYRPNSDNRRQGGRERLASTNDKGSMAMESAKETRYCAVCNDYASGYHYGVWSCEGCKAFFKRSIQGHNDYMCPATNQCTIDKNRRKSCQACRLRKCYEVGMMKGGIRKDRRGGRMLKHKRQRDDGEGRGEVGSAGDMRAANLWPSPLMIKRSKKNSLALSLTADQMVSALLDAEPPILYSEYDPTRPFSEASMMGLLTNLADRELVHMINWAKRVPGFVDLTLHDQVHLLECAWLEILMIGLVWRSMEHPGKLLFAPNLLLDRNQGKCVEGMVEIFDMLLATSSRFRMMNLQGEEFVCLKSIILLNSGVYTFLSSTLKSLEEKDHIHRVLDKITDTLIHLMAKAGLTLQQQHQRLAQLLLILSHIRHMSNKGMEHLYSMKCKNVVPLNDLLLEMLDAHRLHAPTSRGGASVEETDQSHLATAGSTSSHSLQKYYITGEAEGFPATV
Briefly: PRα inhibition (ERα functional antagonism) cell assay in MCF7-ESR1 Y537N 682 CRISPR cells. Conditions: MCF7 Y537N 682 CRISPR cells (heterozygous mutant), 72 hours; read-out: Relative IC50, PRα inhibition (ERα functional antagonism). From the text:
The purpose of the following PRα inhibition (ERα functional antagonism) cell assay is to determine the antagonistic activity of a test compound against the Y537N mutant ERα receptor. An antagonist in this assay is expected to block the function of the ERα receptor.
Culture MCF7-ESR1 Y537N-682 (generated by CRISPR/Cas9 gene editing of ESR1 gene in MCF7 cells, clone #682) in DMEM media supplemented with 10% FBS and 1% penicillin/streptomycin antibiotics and plate the cells (prior to becoming 70% confluent) in 384-well flat-bottom plates at a density of 4,000 cells per well in DMEM phenol red free media 10% FBS (20 μL volume) (charcoal stripped). Incubate the cells overnight in a cell culture incubator (5% CO2, 95% relative humidity and 37° C.) and allow the cells to attach to the plate. The following day dose the cells with the test compound. Use an Echo 555 acoustic dispenser to prepare compound serial dilutions (1:3) in a range from 6 μM to 0.0003 μM. […]
The following day wash the cells with PBS […] (2×20 μL) and incubate with secondary antibody (20 μL/well) (1:1000 dilution, Goat anti-rabbit IgM ALEXA FLUOR™ 488) in PBS 1% BSA for 105 minutes at room temperature. […] Scan the plates with ACUMEN EXPLORER™ [Laser-scanning fluorescence microplate cytometer manufactured by TTP LABTECH LTD] to measure PRα. […]

The test system of assay [2] is MCF7 ESR1 wild type cells. Briefly: Cell proliferation assay in MCF7. Conditions: Homo sapiens, 168 h, seven days, read-out: Relative IC50 MCF7 ESR1 wild type, cell proliferation. Here is the method: (§1) The purpose of the following cell proliferation assays generally is to detect whether a test compound has effects on cell proliferation.
(§2) Seed MCF7 (purchased from ATCC HTB-22) cells at a density of 2,000 cells per well in DMEM phenol red free media 10% FBS (20 μL volume) (charcoal stripped) into a clear bottom 384-well cell culture plate. Plate MCF7-ESRY537N-682 (generated by CRISPR/Cas9 gene editing of ESr1 gene in MCF7 cells, clone #682) in DMEM media supplemented with 10% FBS, and 1% penicillin/streptomycin antibiotics at a density of 1000 cells per well. Incubate the plates at 37° C. and 5% CO2. The following day dose the cells with the test compound. Use an Echo 555 acoustic dispenser to prepare test compound serial dilutions (1:3) in a range from 60 μM to 0.003 μM. Dose the cells with the addition of 5 μL from the serial dilution plate to the cell plate, producing a final DMSO concentration of 0.2% with a final test compound concentration dose range between 20 and 0.001 μM. For the maximum point use media containing 0.2% of DMSO and for the minimum point use fulvestrant diluted at 2 μM final concentrations in the growth media containing 0.2% DMSO. After dosing with the test compound, incubate the cell plates at 37° C. and 5% CO2. […] Scan the plates with ACUMEN EXPLORER™ (Laser-scanning fluorescence microplate cytometer manufactured by TTP LABTECH LTD).

The test system of assay [3] is MCF7 ESR1 Y537N mutant cells. Put plainly: Cell proliferation assay in MCF7-ESR1 Y537N-682. To be noted: Homo sapiens, 168 h; MCF7-ESR1 Y537N-682, seven days; read-out: Relative IC50 MCF7 ESR1 Y537N mutant cells, cell proliferation. The protocol: as §1, §2

Regarding `O=S(=O)(O)Oc1ccc2c3c(cnc2c1)-c1ccc(C(F)(F)F)cc1O[C@@H]3c1ccc(OCCN2CC(CF)C2)cc1` [Example 1, [(5R)-5-[4-[2-[3-(Fluoromethyl)azetidin-1-yl]ethoxy]phenyl]-8-(trifluoromethyl)-5H-chromeno[4,3-c]quinolin-2-yl]hydrogen sulfate], the IC50 came out at 330 ± 116 nM in assay [1], 518 ± 49.9 nM in assay [2] and 702 ± 389 nM in assay [3].

On to `O=C(O)[C@H]1O[C@@H](Oc2ccc3c4c(cnc3c2)-c2ccc(C(F)(F)F)cc2O[C@@H]4c2ccc(OCCN3CC(CF)C3)cc2)[C@H](O)[C@@H](O)[C@@H]1O` [Example 2, (2S,3S,4S,5R,6S)-6-[[(5R)-5-[4-[2-[3-(Fluoromethyl)azetidin-1-yl]ethoxy]phenyl]-8-(trifluoromethyl)-5H-chromeno[4,3-c]quinolin-2-yl]oxy]-3,4,5-trihydroxy-tetrahydropyran-2-carboxylic acid], for which the IC50 in assay [1] came out at 470 ± 58 nM; in assay [2], 550 ± 238 nM; in assay [3], 1500 ± 966 nM.
